Here are results for ten molecules from patent US12077503B2, “Substituted cyclic amides and their use as herbicides” (FMC CORPORATION, priority 2015, dated 2024).

Assay in all cases: Test A postemergence
What all share (type): in vivo

The test system of assay [1] is pigweed (Amaranthus retroflexus). As to conditions: Amaranthus retroflexus, post-emergence, 240 h; for pest or weed control at 125 g/ha: 125 g ai/ha; for pest or weed control at 500 g/ha: 500 g ai/ha, 0 to 100 scale, 0 is no effect, 100 is complete control. In short, it runs like this: (§1)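 In a loam soil and sand blend, planted seeds got a preemergence directed soil spray, and young plants at the one- to two-leaf stage, 2–10 cm high, got a postemergence application; ~10 d greenhouse hold; injury rated visually, 0 = none, 100 = complete control.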

In assay [2] the test system is blackgrass (Alopecurus myosuroides). As to conditions: Alopecurus myosuroides, post-emergence, 240 h; for pest or weed control at 125 g/ha: 125 g ai/ha; for pest or weed control at 500 g/ha: 500 g ai/ha. Summed up: as §1
The subject of assay [3] is wheat (Triticum aestivum). As to conditions: Triticum aestivum, post-emergence, 240 h; for plant injury at 125 g/ha: 125 g ai/ha; for plant injury at 500 g/ha: 500 g ai/ha, 0 to 100 scale, 0 is no effect, 100 is complete control. In short, it runs like this:
as §1

Assay [4] concerns ryegrass, Italian (Italian ryegrass, Lolium multiflorum). As to conditions: Lolium multiflorum, post-emergence, 240 h; for pest or weed control at 125 g/ha: 125 g ai/ha; for pest or weed control at 500 g/ha: 500 g ai/ha, 0 to 100 scale, 0 is no effect, 100 is complete control. In short, it runs like this: as §1
Assay [5] concerns giant foxtail (Setaria faberii). As to conditions: Setaria faberi, post-emergence, 240 h; for pest or weed control at 125 g/ha: 125 g ai/ha; for pest or weed control at 500 g/ha: 500 g ai/ha. In short, it runs like this:
as §1

For assay [6], the system named is Kochia (Kochia scoparia). As to conditions: Bassia scoparia, post-emergence, 240 h; for pest or weed control at 125 g/ha: 125 g ai/ha; for pest or weed control at 500 g/ha: 500 g ai/ha. Summed up: as §1
The mark [7] stands for this setting: postemergence, visual injury rating after approximately 10 d, read-out: Pigweed plant response rating (0 to 100 scale, 0 no effect, 100 complete control).
Where [8] appears, read: postemergence, visual injury rating after approximately 10 d, read-out: Blackgrass plant response rating (0 to 100 scale, 0 no effect, 100 complete control).
[9] abbreviates: postemergence, visual injury rating after approximately 10 d, read-out: Wheat plant response rating (0 to 100 scale, 0 no effect, 100 complete control).
Setting [10] is: postemergence, visual injury rating after approximately 10 d, read-out: Ryegrass, Italian plant response rating (0 to 100 scale, 0 no effect, 100 complete control).
Setting [11] is: postemergence, visual injury rating after approximately 10 d, read-out: Foxtail, Giant plant response rating (0 to 100 scale, 0 no effect, 100 complete control).
Setting [12] is: postemergence, visual injury rating after approximately 10 d, read-out: Kochia plant response rating (0 to 100 scale, 0 no effect, 100 complete control).
Setting [13] is: postemergence, visual injury on 0 to 100 scale (0 no effect, 100 complete control), approx. 10 d, read-out: Pigweed plant response rating.
Where [14] appears, read: postemergence, visual injury on 0 to 100 scale (0 no effect, 100 complete control), approx. 10 d, read-out: Blackgrass plant response rating.
The mark [15] stands for this setting: postemergence, visual injury, 0 to 100 scale (0 no effect, 100 complete control), approx. 10 d, read-out: Plant response rating, Blackgrass.
[16] abbreviates: postemergence, visual injury on 0 to 100 scale (0 no effect, 100 complete control), approx. 10 d, read-out: Wheat plant response rating.
[17] abbreviates: postemergence, visual injury on 0 to 100 scale (0 no effect, 100 complete control), approx. 10 d, read-out: Ryegrass, Italian plant response rating.
[18] abbreviates: postemergence, visual injury on 0 to 100 scale (0 no effect, 100 complete control), approx. 10 d, read-out: Foxtail, Giant plant response rating.
Where [19] appears, read: postemergence, visual injury, 0 to 100 scale (0 no effect, 100 complete control), approx. 10 d, read-out: Plant response rating, Foxtail, Giant.
Where [20] appears, read: postemergence, visual injury on 0 to 100 scale (0 no effect, 100 complete control), approx. 10 d, read-out: Kochia plant response rating.
Where [21] appears, read: postemergence, visual injury, 0 to 100 scale (0 no effect, 100 complete control), approx. 10 d, read-out: Plant response rating, Kochia.
[22] abbreviates: postemergence, read-out: Pigweed plant response rating.
[23] abbreviates: postemergence, 0 to 100 scale, 0 is no effect, 100 is complete control, read-out: Blackgrass plant response rating.
[24] abbreviates: postemergence, read-out: Wheat plant response rating.
The mark [25] stands for this setting: postemergence, read-out: Ryegrass, Italian plant response rating.
Setting [26] is: postemergence, 0 to 100 scale, 0 is no effect, 100 is complete control, read-out: Foxtail, Giant plant response rating.
[27] abbreviates: postemergence, 0 to 100 scale, 0 is no effect, 100 is complete control, read-out: Kochia plant response rating.

Read-outs that look alike come from different tables or passages of the source.

Regarding `Cc1c(F)ccc([C@H]2CN(C)C(=O)[C@@H]2C(=O)Nc2cccc(F)c2F)c1F` [Compound 834], the pest or weed control at 125 g/ha is 20% in assay [1] (setting [7]); 60% in assay [2] (setting [8]); 60% in assay [4] (setting [10]); 90% in assay [5] (setting [11]); 40% in assay [6] (setting [12]). Further, the plant injury at 125 g/ha in assay [3] (setting [9]) was determined as 30%.
As to `O=C1NC[C@H](c2ccc3c(c2)CCC3)[C@H]1C(=O)Nc1ccccc1F` [Compound 1045], the pest or weed control at 125 g/ha in assay [1] (setting [13]) came to 0%; in assay [2] (setting [14]), 40%; in assay [4] (setting [17]), 50%; in assay [5] (setting [18]), 60%; in assay [6] (setting [20]), 0%. Further, the pest or weed control at 500 g/ha in assay [2] (setting [15]) came out at 60%; in assay [5] (setting [19]), 90%; in assay [6] (setting [21]) it was 0%. The plant injury at 125 g/ha in assay [3] (setting [16]) stood at 20%.
Take `CN1C[C@H](c2cc(F)c(F)c(F)c2)[C@@H](C(=O)Nc2cccc(F)c2F)C1=O` [Compound 879]: the pest or weed control at 125 g/ha in assay [1] (setting [7]) came out at 20%; in assay [2] (setting [8]) it was 70%; in assay [4] (setting [10]), 70%; in assay [5] (setting [11]), 80%; in assay [6] (setting [12]) it was 60%. Moreover, in assay [3] (setting [9]), the plant injury at 125 g/ha was 70%.
On to `Cc1ccc([C@H]2CN(C)C(=O)[C@]2(O)C(=O)Nc2cccc(F)c2F)cc1` (racemic) [Compound 1059], for which the pest or weed control at 125 g/ha in assay [1] (setting [13]), in assay [2] (setting [14]), in assay [4] (setting [17]), in assay [5] (setting [18]) and in assay [6] (setting [20]) was 0% throughout. For the same molecule, the pest or weed control at 500 g/ha in assay [1] (setting [22]) was determined as 0%; in assay [2] (setting [23]) it was 0%; in assay [4] (setting [25]), 20%; in assay [5] (setting [26]), 40%; in assay [6] (setting [27]) it was 0%. Besides, in assay [3] (setting [16]), the plant injury at 125 g/ha amounted to 0%. For the same molecule, the plant injury at 500 g/ha in assay [3] (setting [24]) turned out to be 0%.
In the case of `CN1C[C@H](c2cc(F)cc(F)c2)[C@@H](C(=O)Nc2ccc(C(F)(F)F)cc2)C1=O` [Compound 968], the pest or weed control at 125 g/ha in assay [1] (Postemergence, visual injury after approximately 10 d, 0 to 100 scale where 0 is no effect and 100 is complete control, read-out: Plant response rating, Pigweed) turned out to be 0%; in assay [2] (Postemergence, visual injury after approximately 10 d, 0 to 100 scale where 0 is no effect and 100 is complete control, read-out: Plant response rating, Blackgrass), 0%; in assay [4] (Postemergence, visual injury after approximately 10 d, 0 to 100 scale where 0 is no effect and 100 is complete control, read-out: Plant response rating, Ryegrass, Italian) it was 0%; in assay [5] (Postemergence, visual injury after approximately 10 d, 0 to 100 scale where 0 is no effect and 100 is complete control, read-out: Plant response rating, Foxtail, Giant), 0%; in assay [6] (Postemergence, visual injury after approximately 10 d, 0 to 100 scale where 0 is no effect and 100 is complete control, read-out: Plant response rating, Kochia) it was 0%. Further, the plant injury at 125 g/ha in assay [3] (Postemergence, visual injury after approximately 10 d, 0 to 100 scale where 0 is no effect and 100 is complete control, read-out: Plant response rating, Wheat) came to 0%.
As for `O=C(Nc1ccccc1C(F)(F)F)[C@H]1C(=S)NC[C@@H]1c1ccc(C(F)(F)F)cc1` (racemic) [Compound 1049], the pest or weed control at 125 g/ha in assay [1] (setting [13]) is 10%; in assay [2] (setting [14]) it was 0%; in assay [4] (setting [17]) it was 0%; in assay [5] (setting [18]), 70%; in assay [6] (setting [20]), 0%. Besides, the pest or weed control at 500 g/ha in assay [2] (setting [15]) was 0%; in assay [5] (setting [19]) it was 80%; in assay [6] (setting [21]), 30%. In addition, in assay [3] (setting [16]), the plant injury at 125 g/ha worked out at 0%.
As to `CN1C[C@H](c2cscn2)[C@@H](C(=O)Nc2ccccc2F)C1=O` [Compound 1112], the pest or weed control at 125 g/ha in assay [1] (setting [13]), in assay [2] (setting [14]), in assay [4] (setting [17]), in assay [5] (setting [18]) and in assay [6] (setting [20]) was 0% throughout. Further, the pest or weed control at 500 g/ha in assay [1] (setting [22]), in assay [2] (setting [23]), in assay [4] (setting [25]), in assay [5] (setting [26]) and in assay [6] (setting [27]) was 0% each time. In addition, the plant injury at 125 g/ha in assay [3] (setting [16]) amounted to 0%. The plant injury at 500 g/ha in assay [3] (setting [24]) amounted to 0%.
On to `CN1C[C@H](c2cccc(COC(F)F)c2)[C@@H](C(=O)Nc2cccc(F)c2F)C1=O` [Compound 873], for which the pest or weed control at 125 g/ha worked out at 30% in assay [1] (setting [7]); 50% in assay [2] (setting [8]); 40% in assay [4] (setting [10]); 90% in assay [5] (setting [11]); 60% in assay [6] (setting [12]). In addition, the plant injury at 125 g/ha in assay [3] (setting [9]) came to 30%.
`CN1C[C@H](c2cc(F)cc(F)c2)[C@@H](C(=O)Nc2cnccc2Cl)C1=O` [Compound 1096]: the pest or weed control at 125 g/ha in assay [1] (setting [13]), in assay [2] (setting [14]), in assay [4] (setting [17]), in assay [5] (setting [18]) and in assay [6] (setting [20]) was 0% each time. The pest or weed control at 500 g/ha in assay [1] (setting [22]), in assay [2] (setting [23]), in assay [4] (setting [25]), in assay [5] (setting [26]) and in assay [6] (setting [27]) was 0% each time. Also, in assay [3] (setting [16]), the plant injury at 125 g/ha was 0%. Moreover, the plant injury at 500 g/ha in assay [3] (setting [24]) was 0%.
Consider `Cc1cc([C@H]2CN(C)C(=O)[C@@H]2C(=O)Nc2ccc(F)c(F)c2F)ccc1Br` [Compound 1101], for which the pest or weed control at 125 g/ha was 30% in assay [1] (setting [13]); 0% in assay [2] (setting [14]); 20% in assay [4] (setting [17]); 70% in assay [5] (setting [18]); 30% in assay [6] (setting [20]). In addition, the pest or weed control at 500 g/ha in assay [1] (setting [22]) came to 50%; in assay [2] (setting [23]) it was 30%; in assay [4] (setting [25]), 60%; in assay [5] (setting [26]), 80%; in assay [6] (setting [27]) it was 60%. In assay [3] (setting [16]), the plant injury at 125 g/ha came out at 0%. In assay [3] (setting [24]), the plant injury at 500 g/ha was 50%.
